Measured values reported in US20050054586A1, “Treatment of ophthalmic disorders” (priority 2003, published 2005).

Assays:
Assay type in all cases: in vivo
[1] = test system: human patients with type-1 diabetes and affected by non-proliferative diabetic retinopathy; test: Clinical study: hard exudates in the retina (stereoscopic color fundus photographs); settings: one tablet daily, 100 mg cloricromene hydrochloride; start of study versus one-year; 20 patients
Description: (§1) A clinical study was conducted in order to test the safety and efficacy of the compounds for treating ophthalmic disorders. The study included 40 human patients with type-1 diabetes and affected by non-proliferative diabetic retinopathy. Twenty of the patients received one tablet daily containing cloricromene hydrochloride (100 mg), whereas twenty of the patients formed a control group and received no treatment. Patients were randomly assigned either to receive cloricromene or to receive no treatment. The patients included males and females over 45 years of age assessed with type-1 diabetes mellitus and non-proliferative retinopathy assessed by fundus photography and fluoroscein angiography. For patients with bilateral disease, both eyes were evaluated. For patients with unilateral disease, the affected eye served as the study eye. Excluded from the study were subjects: affected with proliferative diabetic retinopathy; having visual acuity less than 2/10; with a history of renal failure; or receiving treatment with anti-coagulants, platelet anti-aggregants, or fibrinolytics.
(§2) The results summarized in the following tables are based on start of study versus one-year study period. Visual acuity was assessed by the patients' use of an eye chart. The presence of hemorrhaging, hard exudates or vascular leakage in the retina was evaluated as a means of grading degree of retinal lesion. Hemorrhaging and hard exudates were assessed primarily by observing the stereoscopic color fundus photographs of the retain. Vascular leakage was assessed primarily by fluorescein staining.

[2] = test system: human patients with type-1 diabetes and affected by non-proliferative diabetic retinopathy; test: Clinical study: visual acuity assessed by eye chart; settings: one tablet daily, 100 mg cloricromene hydrochloride; start of study versus one-year; 20 patients
Description: as §1, §2

[3] = test system: human patients with type-1 diabetes and affected by non-proliferative diabetic retinopathy; test: Clinical study: retinal hemorrhages (stereoscopic color fundus photographs); settings: one tablet daily, 100 mg cloricromene hydrochloride; start of study versus one-year; 20 patients
Description: as §1, §2

[4] = test system: human patients with type-1 diabetes and affected by non-proliferative diabetic retinopathy; test: Clinical study: retinal vascular leakage (fluorescein staining); settings: one tablet daily, 100 mg cloricromene hydrochloride; start of study versus one-year; 20 patients
Description: as §1, §2

[5] = test system: human patients with type-1 diabetes and affected by non-proliferative diabetic retinopathy; test: Clinical study: overall progression of retinal damage; settings: one tablet daily, 100 mg; one-year study period; versus untreated controls
Description: as §1, with “Excluded from the study were subjects: affected with proliferative diabetic retinopathy; having visual acuity less than 2/10; with a history of renal failure; or receiving treatment with anti-coagulants, platelet anti-aggregants, or fibrinolytics.” left out
as §2

CCOC(=O)COc1ccc2c(C)c(CCN(CC)CC)c(=O)oc2c1Cl [Cloricromene, cloricromene]
Hard Exudates: Improved, number of patients (%) [1]: 14 (70%) | Hard Exudates: Stable, number of patients (%) [1]: 6 (30%) | Hard Exudates: Worse, number of patients (%) [1]: 0 (0%) | Visual Acuity: Improved, number of patients (%) [2]: 11 (55%) | Visual Acuity: Stable, number of patients (%) [2]: 8 (40%) | Visual Acuity: Worse, number of patients (%) [2]: 1 (5%) | Retinal Hemorrhages: Improved, number of patients (%) [3]: 13 (65%) | Retinal Hemorrhages: Stable, number of patients (%) [3]: 6 (30%) | Retinal Hemorrhages: Worse, number of patients (%) [3]: 1 (5%) | Vascular Leakage: Improved, number of patients (%) [4]: 3 (15%) | Vascular Leakage: Stable, number of patients (%) [4]: 16 (80%) | Vascular Leakage: Worse, number of patients (%) [4]: 1 (5%) | progression of retinal damage in diabetic patients [5]: effective in delaying the progression of retinal damage
